Each structure is given as a SMILES string.

Assay [1] has as its system human epidermal keratinocyte cells. As to the kind of experiment: Scratch assay (cell migration / gap closure) using human epidermal keratinocyte cells. Format: cell-based. The note with it: 0.001% sample. The method, then: The cell regeneration function or properties of the naringin:zinc complex were evaluated via a scratch assay using human epidermal keratinocyte cells obtained from Thermal Fisher Scientific of Gaithersburg, Md. Particularly, monolayers of keratinocyte cells were gown to full confluency in separate wells, and each well was scratched with a 1000 μl tip to create a cell-free gap. Each of the wells with the cell-free gap was then washed with 1 mL of PBS twice to remove any dead floating cells. […] Distance measurements of the gap were taken every 24 hours until the gaps fully closed.
It should be appreciated that a relatively higher value of the percentage of gap closure indicates a relatively greater repair or regeneration function.

In a further assay the test system is IL-1a. As to the kind of experiment: IL-1a assay using HaCaT cells stressed with 0.01% SDS (ELISA of cell supernatants). Format: cell-based. The following applies: 0.001% sample, 24 h pretreatment, 0.01% SDS stress 15 min, sample added again, normalized by cell viability. A general note: In an ELISA, binding on a coated surface is turned into a signal by an enzyme label.

Method for IL-1a: The anti-inflammatory properties of the naringin:zinc complex was evaluated by conducting an IL-la assay using HaCaT cells. To evaluate the anti-inflammatory properties, HaCaT cells were grown into 80% confluency and pretreated for 24 hours with 1 mL of each of the following samples: (1) a culture media (control); (2) 0.001% naringin:zinc complex; and (3) 0.001% naringin alone.
After pretreating the HaCaT cells, the cells were stressed with 0.01% SDS for 15 minutes before adding another 1 mL of each of the samples (1)-(3). Each of the HaCaT cells were used to prepare cell supernatants, which were used for IL-la assays with IL-la ELISA kits.

`C[C@@H]1O[C@@H](O[C@H]2[C@H](Oc3cc(O)c4c(c3)O[C@H](c3ccc(O)cc3)CC4=O)O[C@H](CO)[C@@H](O)[C@@H]2O)[C@H](O)[C@H](O)[C@H]1O` [Naringin, naringin] returned a Cell Migration of Keratinocytes (% Active); percentage of gap closure versus the starting gap distance in assay [1] of 58%. Further, the IL-1a level in the assay on IL-1a amounted to 6.6 pg/mL.

Values taken from patent US11116708B2, “Personal care compositions including naringin:zinc complexes and methods for the same” (Colgate-Palmolive Company, priority 2017, dated 2021).
